Holding throughout (assay type): functional
For one assay, the target named is T1, Caspase-3 (Homo sapiens, UniProt P42574).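 Note: Dose-response selectivity test against caspase-3 for candidate inhibitors of sentrin-specific proteases (SENPs).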
T1 sequence (P42574 whole entry): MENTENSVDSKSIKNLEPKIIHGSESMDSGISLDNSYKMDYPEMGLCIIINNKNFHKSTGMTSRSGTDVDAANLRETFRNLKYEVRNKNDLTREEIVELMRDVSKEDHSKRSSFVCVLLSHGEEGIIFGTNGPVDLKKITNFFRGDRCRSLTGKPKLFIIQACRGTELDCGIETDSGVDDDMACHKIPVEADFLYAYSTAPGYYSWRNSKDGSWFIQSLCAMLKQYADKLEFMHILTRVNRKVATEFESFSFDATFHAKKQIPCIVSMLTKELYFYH

The target in assay [1] is T2, Sentrin-specific protease 7 (Homo sapiens, UniProt Q9BQF6).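 Note: Luminescence-based dose-response confirmation of ultra-high-throughput screening hits, measuring inhibition of SENP7.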
T2 sequence (Q9BQF6 whole entry): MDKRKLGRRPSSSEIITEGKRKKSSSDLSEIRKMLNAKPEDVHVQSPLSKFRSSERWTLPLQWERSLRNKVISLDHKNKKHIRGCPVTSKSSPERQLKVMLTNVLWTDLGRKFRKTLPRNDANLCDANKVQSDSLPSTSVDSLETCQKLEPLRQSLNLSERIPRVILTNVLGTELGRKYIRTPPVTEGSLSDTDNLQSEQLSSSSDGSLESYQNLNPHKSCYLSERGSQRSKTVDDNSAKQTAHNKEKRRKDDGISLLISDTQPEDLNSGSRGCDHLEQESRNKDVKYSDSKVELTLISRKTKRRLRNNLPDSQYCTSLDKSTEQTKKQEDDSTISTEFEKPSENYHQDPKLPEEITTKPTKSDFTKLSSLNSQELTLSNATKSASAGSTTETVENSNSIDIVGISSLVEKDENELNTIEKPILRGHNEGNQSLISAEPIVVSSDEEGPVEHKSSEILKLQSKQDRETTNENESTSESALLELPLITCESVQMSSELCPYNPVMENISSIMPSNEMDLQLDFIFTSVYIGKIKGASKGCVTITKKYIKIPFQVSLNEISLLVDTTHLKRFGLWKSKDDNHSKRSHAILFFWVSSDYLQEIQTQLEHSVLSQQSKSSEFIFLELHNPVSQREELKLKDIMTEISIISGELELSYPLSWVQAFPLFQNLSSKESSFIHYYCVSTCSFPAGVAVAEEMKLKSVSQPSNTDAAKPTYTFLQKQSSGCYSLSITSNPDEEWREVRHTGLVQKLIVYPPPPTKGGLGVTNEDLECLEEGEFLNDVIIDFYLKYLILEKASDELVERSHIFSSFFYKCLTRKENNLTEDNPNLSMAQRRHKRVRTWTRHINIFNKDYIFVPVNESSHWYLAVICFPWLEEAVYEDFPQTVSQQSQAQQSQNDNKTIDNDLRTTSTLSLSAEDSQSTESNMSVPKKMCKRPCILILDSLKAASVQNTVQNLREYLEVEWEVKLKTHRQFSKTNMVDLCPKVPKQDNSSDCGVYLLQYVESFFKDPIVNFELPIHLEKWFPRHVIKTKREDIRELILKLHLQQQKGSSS

Assay [2] concerns the target T3, Sentrin-specific protease 6 (Homo sapiens, UniProt Q9GZR1).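 Note: Luminescence-based dose-response confirmatory assay of SENP6 inhibition, following up an ultra-high-throughput screen.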
T3 sequence (Q9GZR1 whole entry): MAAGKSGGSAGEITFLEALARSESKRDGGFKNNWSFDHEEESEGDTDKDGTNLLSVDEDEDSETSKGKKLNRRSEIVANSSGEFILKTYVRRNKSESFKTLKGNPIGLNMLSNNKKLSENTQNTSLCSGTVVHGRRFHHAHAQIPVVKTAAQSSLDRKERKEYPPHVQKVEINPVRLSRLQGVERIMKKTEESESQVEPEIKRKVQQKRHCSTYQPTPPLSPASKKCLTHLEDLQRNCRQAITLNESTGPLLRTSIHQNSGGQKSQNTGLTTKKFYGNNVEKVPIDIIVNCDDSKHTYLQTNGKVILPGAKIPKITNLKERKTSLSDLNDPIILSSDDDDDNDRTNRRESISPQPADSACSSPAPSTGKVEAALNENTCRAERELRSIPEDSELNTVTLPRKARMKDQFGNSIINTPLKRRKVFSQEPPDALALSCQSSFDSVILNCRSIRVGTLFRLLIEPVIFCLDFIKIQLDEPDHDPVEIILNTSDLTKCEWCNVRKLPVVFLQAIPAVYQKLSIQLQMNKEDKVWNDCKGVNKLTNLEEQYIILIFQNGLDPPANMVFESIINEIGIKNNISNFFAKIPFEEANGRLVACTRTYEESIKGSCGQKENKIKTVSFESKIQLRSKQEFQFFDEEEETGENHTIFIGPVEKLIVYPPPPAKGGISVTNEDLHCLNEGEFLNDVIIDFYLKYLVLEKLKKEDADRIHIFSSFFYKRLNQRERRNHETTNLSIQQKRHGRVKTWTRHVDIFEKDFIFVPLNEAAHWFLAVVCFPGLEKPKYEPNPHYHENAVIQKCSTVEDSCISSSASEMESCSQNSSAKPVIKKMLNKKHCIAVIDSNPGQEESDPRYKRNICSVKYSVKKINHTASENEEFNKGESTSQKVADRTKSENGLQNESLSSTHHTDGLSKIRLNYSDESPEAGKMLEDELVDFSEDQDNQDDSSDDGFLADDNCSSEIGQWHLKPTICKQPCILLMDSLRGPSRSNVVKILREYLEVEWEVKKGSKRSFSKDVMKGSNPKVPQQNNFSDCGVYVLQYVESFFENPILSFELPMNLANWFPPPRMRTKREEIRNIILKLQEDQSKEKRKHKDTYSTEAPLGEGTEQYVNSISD

Assay [3] has as its target T4, Sentrin-specific protease 8 (Homo sapiens, UniProt Q96LD8).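 Note: luminescence read-out of SENP8 inhibition, dose-response confirmation following an ultra-high-throughput screen.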
T4 sequence (Q96LD8 whole entry): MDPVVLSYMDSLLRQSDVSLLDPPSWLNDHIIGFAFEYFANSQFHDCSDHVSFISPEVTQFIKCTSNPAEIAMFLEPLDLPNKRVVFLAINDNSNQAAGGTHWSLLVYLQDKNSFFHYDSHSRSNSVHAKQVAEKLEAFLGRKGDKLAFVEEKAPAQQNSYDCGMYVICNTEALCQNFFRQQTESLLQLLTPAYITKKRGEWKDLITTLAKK

For assay [4], the target named is T5, Fatty acid synthase (Homo sapiens, UniProt P49327). Briefly: inhibition of human FAS-TE enzyme activity – biochemical, endpoint fluorescence intensity, uHTS hits, dose response (AID 624327).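 Note: fluorescence from hydrolysis of an O-methyl fluorescein acyl ester substrate by the enzyme.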
For assay [5], the target named is T5, Fatty acid synthase. The assay can be described thus: inhibition of human FAS-TE enzyme activity – biochemical, kinetic fluorescence intensity, dose response (AID 624326).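 Note: rate of fluorescence rise from hydrolysis of a fluorogenic O-methyl fluorescein ester substrate.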
Assay [6] has as its target T6, Replicative DNA helicase DnaB (Mycobacterium tuberculosis, UniProt P9WMR3).
T6 sequence (P9WMR3 whole entry): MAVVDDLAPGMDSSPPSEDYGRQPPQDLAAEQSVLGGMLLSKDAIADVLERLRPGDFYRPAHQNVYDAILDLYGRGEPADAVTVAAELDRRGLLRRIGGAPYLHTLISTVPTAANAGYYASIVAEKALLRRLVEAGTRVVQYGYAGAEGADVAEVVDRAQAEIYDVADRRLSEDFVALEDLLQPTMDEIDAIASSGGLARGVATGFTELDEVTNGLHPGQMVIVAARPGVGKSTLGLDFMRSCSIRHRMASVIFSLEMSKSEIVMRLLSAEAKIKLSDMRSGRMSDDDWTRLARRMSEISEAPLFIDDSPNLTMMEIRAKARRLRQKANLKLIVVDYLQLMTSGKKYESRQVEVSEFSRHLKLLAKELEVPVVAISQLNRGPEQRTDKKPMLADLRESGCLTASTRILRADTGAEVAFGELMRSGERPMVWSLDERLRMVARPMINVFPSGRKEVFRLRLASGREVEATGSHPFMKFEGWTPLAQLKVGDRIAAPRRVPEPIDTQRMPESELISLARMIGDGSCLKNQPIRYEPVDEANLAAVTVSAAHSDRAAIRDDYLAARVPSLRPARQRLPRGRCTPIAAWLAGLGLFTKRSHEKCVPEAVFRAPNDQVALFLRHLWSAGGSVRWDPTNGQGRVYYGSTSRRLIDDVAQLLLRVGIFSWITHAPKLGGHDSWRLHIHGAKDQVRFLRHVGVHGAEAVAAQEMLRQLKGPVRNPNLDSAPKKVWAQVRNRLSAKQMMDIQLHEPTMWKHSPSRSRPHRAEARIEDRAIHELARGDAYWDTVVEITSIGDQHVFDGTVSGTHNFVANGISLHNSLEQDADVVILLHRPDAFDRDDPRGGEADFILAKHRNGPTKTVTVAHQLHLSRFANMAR
The assay can be described thus: DnaB intein splicing inhibitors, dose response, biochemical, cell-free fluorescence (AID 449749).

The next assay addresses T7, Protein RecA (Mycobacterium tuberculosis, UniProt P9WHJ3).
T7 sequence (P9WHJ3 whole entry): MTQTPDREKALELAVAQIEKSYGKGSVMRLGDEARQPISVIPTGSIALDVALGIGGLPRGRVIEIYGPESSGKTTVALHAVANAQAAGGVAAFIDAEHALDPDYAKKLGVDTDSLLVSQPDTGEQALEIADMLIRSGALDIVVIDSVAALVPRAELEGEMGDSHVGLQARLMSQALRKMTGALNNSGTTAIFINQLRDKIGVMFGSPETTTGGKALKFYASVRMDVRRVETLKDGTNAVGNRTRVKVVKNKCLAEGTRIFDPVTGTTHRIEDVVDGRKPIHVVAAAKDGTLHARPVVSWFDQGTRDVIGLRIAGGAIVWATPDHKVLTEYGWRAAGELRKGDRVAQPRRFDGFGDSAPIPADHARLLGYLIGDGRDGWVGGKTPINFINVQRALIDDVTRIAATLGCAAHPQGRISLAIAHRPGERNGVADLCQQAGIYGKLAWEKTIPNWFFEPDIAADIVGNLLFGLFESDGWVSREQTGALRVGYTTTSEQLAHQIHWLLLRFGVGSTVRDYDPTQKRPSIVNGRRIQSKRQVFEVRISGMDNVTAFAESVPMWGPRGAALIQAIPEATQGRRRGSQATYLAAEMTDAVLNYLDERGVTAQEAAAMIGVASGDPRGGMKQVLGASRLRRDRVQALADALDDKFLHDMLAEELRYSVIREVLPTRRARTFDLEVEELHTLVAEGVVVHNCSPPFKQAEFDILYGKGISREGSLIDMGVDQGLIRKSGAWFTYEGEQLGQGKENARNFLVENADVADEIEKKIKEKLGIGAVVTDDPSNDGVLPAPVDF
Briefly: Fluorescence Cell-Free Homogeneous Dose Retest to Identify Inhibitors of RecA-Intein Splicing Activity. [Related pubchem assays (depositor defined):AID2097, AID2223, AID489010, AID492950].

Another assay addresses Genome polyprotein (dengue virus type 2, UniProt P29990). Briefly: flavivirus cap methylation enzyme inhibition – biochemical, confirmation dose response, primary screen (AID 588689).

Data on ten molecules can be found in ChEMBL document CHEMBL1201862, “PubChem BioAssay data set” (2004).

Calls of active or inactive are those of the source.

T5 sequence (P49327 whole entry): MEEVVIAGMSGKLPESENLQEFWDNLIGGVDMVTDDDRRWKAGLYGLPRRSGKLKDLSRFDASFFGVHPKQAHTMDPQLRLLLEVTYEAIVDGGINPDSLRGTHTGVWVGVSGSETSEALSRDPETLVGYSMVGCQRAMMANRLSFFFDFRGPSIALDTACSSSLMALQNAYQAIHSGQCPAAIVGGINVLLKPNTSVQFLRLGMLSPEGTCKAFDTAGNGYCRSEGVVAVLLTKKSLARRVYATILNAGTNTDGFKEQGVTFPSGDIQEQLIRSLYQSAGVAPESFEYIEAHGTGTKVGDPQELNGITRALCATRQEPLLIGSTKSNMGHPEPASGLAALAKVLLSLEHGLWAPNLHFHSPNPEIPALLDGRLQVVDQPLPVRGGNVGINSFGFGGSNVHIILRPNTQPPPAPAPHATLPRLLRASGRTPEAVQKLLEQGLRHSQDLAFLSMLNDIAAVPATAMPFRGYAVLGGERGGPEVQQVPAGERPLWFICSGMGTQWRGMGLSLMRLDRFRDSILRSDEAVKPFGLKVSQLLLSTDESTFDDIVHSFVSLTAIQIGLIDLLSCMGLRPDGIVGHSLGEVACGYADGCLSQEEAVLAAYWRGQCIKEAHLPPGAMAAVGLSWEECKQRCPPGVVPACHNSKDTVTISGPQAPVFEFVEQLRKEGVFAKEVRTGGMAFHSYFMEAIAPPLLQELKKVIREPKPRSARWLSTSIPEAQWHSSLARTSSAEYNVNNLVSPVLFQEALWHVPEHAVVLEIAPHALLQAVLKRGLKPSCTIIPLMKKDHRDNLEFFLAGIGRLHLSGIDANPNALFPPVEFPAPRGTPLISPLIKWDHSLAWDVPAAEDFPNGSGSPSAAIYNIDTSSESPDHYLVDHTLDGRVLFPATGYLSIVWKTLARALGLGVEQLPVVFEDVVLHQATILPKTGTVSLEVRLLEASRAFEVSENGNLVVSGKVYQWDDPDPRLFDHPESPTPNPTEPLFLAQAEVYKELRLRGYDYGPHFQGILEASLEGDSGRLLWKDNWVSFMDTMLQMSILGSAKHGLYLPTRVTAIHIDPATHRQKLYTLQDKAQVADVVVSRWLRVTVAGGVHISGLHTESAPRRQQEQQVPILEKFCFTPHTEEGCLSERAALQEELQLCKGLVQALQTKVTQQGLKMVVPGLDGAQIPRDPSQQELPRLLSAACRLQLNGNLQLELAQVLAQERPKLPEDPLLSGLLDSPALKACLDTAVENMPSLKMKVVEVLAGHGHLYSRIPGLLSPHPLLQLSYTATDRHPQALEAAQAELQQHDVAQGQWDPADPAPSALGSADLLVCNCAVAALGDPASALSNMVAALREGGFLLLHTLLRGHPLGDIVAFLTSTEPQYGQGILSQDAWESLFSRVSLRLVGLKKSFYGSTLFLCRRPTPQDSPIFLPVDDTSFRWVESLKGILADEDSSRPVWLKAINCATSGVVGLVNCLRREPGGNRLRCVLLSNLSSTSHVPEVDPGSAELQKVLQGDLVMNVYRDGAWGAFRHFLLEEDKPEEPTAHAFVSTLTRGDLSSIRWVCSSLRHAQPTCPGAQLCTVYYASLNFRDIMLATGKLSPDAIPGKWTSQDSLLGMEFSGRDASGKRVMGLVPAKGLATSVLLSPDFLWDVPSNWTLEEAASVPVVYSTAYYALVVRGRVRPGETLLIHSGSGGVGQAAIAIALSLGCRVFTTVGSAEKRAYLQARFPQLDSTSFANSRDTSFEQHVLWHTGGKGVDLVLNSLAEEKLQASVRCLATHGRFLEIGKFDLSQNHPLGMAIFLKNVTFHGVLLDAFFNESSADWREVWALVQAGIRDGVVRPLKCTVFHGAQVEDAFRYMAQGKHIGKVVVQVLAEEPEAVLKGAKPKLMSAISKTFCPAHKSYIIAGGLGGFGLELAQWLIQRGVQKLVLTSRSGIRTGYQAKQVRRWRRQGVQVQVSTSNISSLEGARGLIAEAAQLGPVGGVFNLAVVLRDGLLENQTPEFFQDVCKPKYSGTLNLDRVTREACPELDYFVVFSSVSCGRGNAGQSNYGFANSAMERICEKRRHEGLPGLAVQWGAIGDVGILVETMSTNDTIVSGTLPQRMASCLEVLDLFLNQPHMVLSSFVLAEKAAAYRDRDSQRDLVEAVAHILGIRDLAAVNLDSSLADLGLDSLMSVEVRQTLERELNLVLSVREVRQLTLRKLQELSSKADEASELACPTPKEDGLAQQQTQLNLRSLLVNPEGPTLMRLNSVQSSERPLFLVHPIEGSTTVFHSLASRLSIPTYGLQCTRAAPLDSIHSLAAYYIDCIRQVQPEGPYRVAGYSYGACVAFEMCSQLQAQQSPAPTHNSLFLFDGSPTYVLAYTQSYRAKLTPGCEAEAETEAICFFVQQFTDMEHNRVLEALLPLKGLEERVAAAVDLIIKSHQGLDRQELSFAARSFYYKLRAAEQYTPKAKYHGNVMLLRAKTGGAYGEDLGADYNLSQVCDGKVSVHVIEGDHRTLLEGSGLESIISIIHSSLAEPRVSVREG
Sequence of Genome polyprotein (P29990 2492-3391 limits assumed): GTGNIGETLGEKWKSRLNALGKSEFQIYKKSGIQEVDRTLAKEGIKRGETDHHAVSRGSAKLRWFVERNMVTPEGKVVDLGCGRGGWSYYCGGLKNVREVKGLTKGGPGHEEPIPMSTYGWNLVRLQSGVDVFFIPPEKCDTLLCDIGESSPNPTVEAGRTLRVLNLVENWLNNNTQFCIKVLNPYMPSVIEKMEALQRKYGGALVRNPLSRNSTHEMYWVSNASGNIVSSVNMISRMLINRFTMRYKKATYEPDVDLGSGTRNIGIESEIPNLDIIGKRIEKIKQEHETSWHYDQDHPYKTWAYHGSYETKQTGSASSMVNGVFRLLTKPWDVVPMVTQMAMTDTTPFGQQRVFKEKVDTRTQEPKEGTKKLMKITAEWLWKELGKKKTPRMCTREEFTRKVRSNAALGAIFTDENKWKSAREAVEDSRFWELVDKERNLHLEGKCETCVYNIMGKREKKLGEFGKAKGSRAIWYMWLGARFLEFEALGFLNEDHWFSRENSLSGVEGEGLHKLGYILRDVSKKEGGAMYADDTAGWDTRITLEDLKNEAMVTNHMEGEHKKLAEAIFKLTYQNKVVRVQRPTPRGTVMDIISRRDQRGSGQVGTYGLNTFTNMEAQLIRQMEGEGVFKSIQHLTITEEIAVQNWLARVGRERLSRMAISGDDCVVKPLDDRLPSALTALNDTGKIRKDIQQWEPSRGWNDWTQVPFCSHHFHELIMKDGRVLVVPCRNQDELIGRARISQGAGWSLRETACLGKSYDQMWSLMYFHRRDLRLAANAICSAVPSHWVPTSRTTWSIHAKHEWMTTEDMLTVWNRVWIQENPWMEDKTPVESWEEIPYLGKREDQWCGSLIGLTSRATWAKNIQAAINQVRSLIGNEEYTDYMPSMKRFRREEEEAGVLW

Turning to `COCC(C)n1c(C)cc(C(=O)COC(=O)c2n[nH]c3ccccc23)c1C` (centres undefined), the IC50 at Caspase-3 is 16.8 µM (active); in assay [1], 7.13 µM (active); in assay [2], 24.3 µM (active); in assay [3], 42.9 µM (active).
Take `O=C(CCN1C(=O)/C(=C\c2ccccc2Cl)SC1=S)Nc1cccnc1`: the IC50 is 7.21 µM (active) on Fatty acid synthase [4] and 6.84 µM (active) on Fatty acid synthase [5].
For the molecule `O=C(O)c1cccc(NC(=O)c2cccc(S(=O)(=O)Nc3cccc([N+](=O)[O-])c3)c2)c1`, the IC50 at Caspase-3 was 19.2 µM (active); in assay [1], 5.29 µM (active); in assay [2], 9.02 µM (active); in assay [3], 11.9 µM (active).
As for `O=C(COC(=O)c1cc([N+](=O)[O-])ccc1NCCO)Nc1ccc2c(c1)OCO2`, the IC50 is 2.69 µM (active) at Fatty acid synthase [4] and 4.51 µM (active) at Fatty acid synthase [5].
In the case of `Cc1nc(Cl)sc1C(=O)Nc1ccc2ccccc2c1`, the IC50 is 22.7 µM (active) on Caspase-3, 7.54 µM (active) in assay [1], 23.9 µM (active) in assay [2] and 29.8 µM (active) in assay [3].
Take `CCOC(=O)CC1=NN(c2ccccc2)C(=O)/C1=C\c1ccc(OC)cc1OC`: the AC50 in [6] is 805 nM (active). Besides, the EC50 on Protein RecA was 104 nM (active). Also, on Genome polyprotein, the IC50 is 27.1 µM (active).
For `O=c1oc(-c2ccco2)nc2sc3c(c12)CCCCC3`, the IC50 at Fatty acid synthase [4] was 5.34 µM (active); at Fatty acid synthase [5], 3.45 µM (active).
Taken in the same sequence, the figures for `Cc1nnc(SC(C(=O)Nc2ccc(Cl)c([N+](=O)[O-])c2)c2ccccc2)nc1O` (centres undefined) were 17.3 µM (active) and 15.9 µM (active).
`O=C(Cn1cc([N+](=O)[O-])ccc1=O)N1CCc2ccccc2C1`: the results for the IC50 at Fatty acid synthase [4] and at Fatty acid synthase [5] were 3.74 µM (active) and 5.97 µM (active), respectively.
`CC(C)c1ccc(/N=C/c2c(O)oc3ccccc3c2=O)cc1`: the 50% inhibitory concentration (IC50) on Caspase-3 was 16.9 µM (active); in assay [1], 3.15 µM (active); in assay [2] it was 30.5 µM (active); in assay [3] it was 90.6 µM (active).
